Reference: US20060046988A1, “Methoprene formulations for the control of tick infestations” (priority 2004, published 2006)
Like-named read-outs stand apart in the source and are kept apart here.

Test system: Boophilus microplus
Test: In vitro immersion of engorged female ticks in (S)-methoprene: egg laying, egg weight, hatching
Settings: for Eggs Viable / Eggs Weight / Number of Ticks Laying Eggs (Day 14): 10 ticks treated; for Eggs Hatch (%): eggs incubated another 4 weeks; for Total Egg Mass / Total Viable Egg Mass / Total Number of Ticks Laying Eggs: both replicates; for Total Number of Ticks Laying Eggs: 20 ticks treated; for Percent Reduction in Egg Mass per Tick / Percent Reduction in Number of Ticks Laying Eggs / Percent Reduction in Total Egg Mass / inhibition at 100 ppm / inhibition at 1000 ppm / inhibition at 10000 ppm / inhibition at 100000 ppm: vs 0 ppm; for inhibition at 100 ppm / inhibition at 1000 ppm / inhibition at 10000 ppm / inhibition at 100000 ppm: Rhipicephalus microplus
Excerpt: Engorged female ticks were separated into groups of 10, weighed and placed in small containers. Group assignments were adjusted so that the total weight of ticks in each group was similar. Each container of 10 ticks was then randomly assigned to one of the five treatment groups, with two replicates per group. Each replicate of ten female ticks each was then immersed in a solution of (S)-methoprene at a concentration of 0, 100, 1000, 10000 and 100000 ppm of (S)-methoprene diluted in acetone:water (40:60 vN). The ticks were maintained immersed in a treatment for 2 minutes.
After exposure, ticks were removed and dried in a pad prepared with paper towels. Each group was then placed into a clean container identified with the treatment group and incubated for 2 weeks at approximately 27° Celsius and 60% or higher relative humidity to determine the proportion of egg laying females. Eggs laid were weighed and incubated for another 4-week period for hatching observation.

COC(C)(C)CCC[C@H](C)C/C=C/C(C)=C/C(=O)OC(C)C [(S)-methoprene]
Egg Mass per Tick (100 ppm): 0.173 g | Viable Egg Mass per Tick (100 ppm): 0.173 g | Eggs Viable (100 ppm, Replicate A): 1.38 g | Eggs Weight (100 ppm, Replicate A): 1.38 g | Number of Ticks Laying Eggs (Day 14) (100 ppm, Replicate A): 9 | Eggs Hatch (%) (100 ppm, Replicate A): 100% | Eggs Viable (100 ppm, Replicate B): 1.39 g | Eggs Weight (100 ppm, Replicate B): 1.39 g | Number of Ticks Laying Eggs (Day 14) (100 ppm, Replicate B): 7 | Eggs Hatch (%) (100 ppm, Replicate B): 100% | Total Egg Mass (100 ppm): 2.77 g | Total Viable Egg Mass (100 ppm): 2.77 g | Total Number of Ticks Laying Eggs (100 ppm): 16 | Percent Reduction in Egg Mass per Tick (100 ppm): 1% | Percent Reduction in Number of Ticks Laying Eggs (100 ppm): 20% | Percent Reduction in Total Egg Mass (100 ppm): 21% | Egg Mass per Tick (1,000 ppm): 0.152 g | Viable Egg Mass per Tick (1,000 ppm): 0.022 g | Eggs Viable (1,000 ppm, Replicate A): 0.09 g | Eggs Weight (1,000 ppm, Replicate A): 0.47 g | Number of Ticks Laying Eggs (Day 14) (1,000 ppm, Replicate A): 3 | Eggs Hatch (%) (1,000 ppm, Replicate A): 20% | Eggs Viable (1,000 ppm, Replicate B): 0.04 g | Eggs Weight (1,000 ppm, Replicate B): 0.44 g | Number of Ticks Laying Eggs (Day 14) (1,000 ppm, Replicate B): 3 | Eggs Hatch (%) (1,000 ppm, Replicate B): 10% | Total Egg Mass (1,000 ppm): 0.91 g | Total Viable Egg Mass (1,000 ppm): 0.13 g | Total Number of Ticks Laying Eggs (1,000 ppm): 6 | Percent Reduction in Egg Mass per Tick (1,000 ppm): 13% | Percent Reduction in Number of Ticks Laying Eggs (1,000 ppm): 70% | Percent Reduction in Total Egg Mass (1,000 ppm): 74% | Egg Mass per Tick (10,000 ppm): 0.134 g | Viable Egg Mass per Tick (10,000 ppm): 0 g | Eggs Viable (10,000 ppm, Replicate A): 0 g | Eggs Weight (10,000 ppm, Replicate A): 1.22 g | Number of Ticks Laying Eggs (Day 14) (10,000 ppm, Replicate A): 9 | Eggs Hatch (%) (10,000 ppm, Replicate A): 0% | Eggs Viable (10,000 ppm, Replicate B): 0 g | Eggs Weight (10,000 ppm, Replicate B): 0.92 g | Number of Ticks Laying Eggs (Day 14) (10,000 ppm, Replicate B): 7 | Eggs Hatch (%) (10,000 ppm, Replicate B): 0% | Total Egg Mass (10,000 ppm): 2.14 g | Total Viable Egg Mass (10,000 ppm): 0 g | Total Number of Ticks Laying Eggs (10,000 ppm): 16 | Percent Reduction in Egg Mass per Tick (10,000 ppm): 23% | Percent Reduction in Number of Ticks Laying Eggs (10,000 ppm): 20% | Percent Reduction in Total Egg Mass (10,000 ppm): 39% | Egg Mass per Tick (100,000 ppm): 0.125 g | Viable Egg Mass per Tick (100,000 ppm): 0 g | Eggs Viable (100,000 ppm, Replicate A): 0 g | Eggs Weight (100,000 ppm, Replicate A): 0.58 g | Number of Ticks Laying Eggs (Day 14) (100,000 ppm, Replicate A): 4 | Eggs Hatch (%) (100,000 ppm, Replicate A): 0% | Eggs Viable (100,000 ppm, Replicate B): 0 g | Eggs Weight (100,000 ppm, Replicate B): 0.42 g | Number of Ticks Laying Eggs (Day 14) (100,000 ppm, Replicate B): 4 | Eggs Hatch (%) (100,000 ppm, Replicate B): 0% | Total Egg Mass (100,000 ppm): 1.00 g | Total Viable Egg Mass (100,000 ppm): 0 g | Total Number of Ticks Laying Eggs (100,000 ppm): 8 | Percent Reduction in Egg Mass per Tick (100,000 ppm): 29% | Percent Reduction in Number of Ticks Laying Eggs (100,000 ppm): 60% | Percent Reduction in Total Egg Mass (100,000 ppm): 71% | inhibition at 100 ppm (100 ppm, read-out: Percent Reduction in Viable Egg Mass): 21% | inhibition at 100 ppm (100 ppm, read-out: Percent Reduction in Viable Egg Mass per Tick): 1% | inhibition at 1000 ppm (1,000 ppm, read-out: Percent Reduction in Viable Egg Mass): 96% | inhibition at 1000 ppm (1,000 ppm, read-out: Percent Reduction in Viable Egg Mass per Tick): 87% | inhibition at 10000 ppm (10,000 ppm, read-out: Percent Reduction in Viable Egg Mass): 100% | inhibition at 10000 ppm (10,000 ppm, read-out: Percent Reduction in Viable Egg Mass per Tick): 100% | inhibition at 100000 ppm (100,000 ppm, read-out: Percent Reduction in Viable Egg Mass): 100% | inhibition at 100000 ppm (100,000 ppm, read-out: Percent Reduction in Viable Egg Mass per Tick): 100% | egg laying (all treatment groups (100 to 100000 ppm)): Eggs were laid | egg viability (concentrations at and above 10,000 ppm): completely inhibited | egg hatching (concentrations of 10,000 ppm and above): did not hatch
